Reference: patent EP4516108A1, “METHOD FOR PRESERVING A BAKERY PRODUCT USING CHITOSAN AS INGREDIENT” (Mauri Technology B.V., priority 2023, dated 2025)

Experiments:
[1] = cited from earlier work
P. paneum = assay: Accelerated shelf-life testing (ASLT): time of appearance (TOA) and growth pattern of mould on inoculated breadcrumbs; format: cell-based, Penicillium paneum; conditions: Example 1, tin breads, ±500 spores, around 21 °C; CalPro 0.3% FWB, chitosan 1% FWB (about 1 wt.%)
A. niger = assay: Accelerated shelf-life testing (ASLT): time of appearance (TOA) of mould on inoculated breadcrumbs
Procedure: Breads were made by mixing the dough ingredients from Table 1. The wt.% for several ingredients are given based on flour weight (Flour Weight Based, FWB). For the prepared recipes the difference with total dry weight is insubstantial. The following breads were prepared: a control without any preservatives, a reference containing 0.3% flour weight based (FWB) calcium propionate (CalPro), and a bread containing 1% chitosan (KitoZyme, Belgium) with number average MW of 15 kDa and degree of deacetylation (DDA) of 70%. […] Ingredients were mixed using a spiral mixer for 10 minutes. Afterwards the dough for each trial was divided into three pieces of 520 g, rounded manually, and placed into bread tins. The dough pieces were placed in a proofing cabinet to rise at 40 °C and 80% relative humidity until they reach similar height (fermentation time between 60-70 min). The breads were baked for 22 minutes in a deck oven at 260 (bottom) and 230 (top) °C.
Following baking, the breads were cooled in a HEPA-filtered chamber for 90 min. One bread was used for pH measurement and two breads were subjected to ASLT.
To perform ASLT, the remaining two breads were sliced to 13 mm slices. The crumb (inner part of breads) of three random slices from each bread were cut out using a cookie cutter (3.2 cm diameter) and placed in sterile 6-well plates (2x breads × 3 slices). Two 6-well plates were prepared per bread type. Each bread piece in a 6-well plate was inoculated with 3 aliquots of ±500 spores (20 pL) of either A. niger or P. paneum. Therefore, 18 spots of each mould were inoculated per trial (6 bread piece × 3 aliquots). Freeze-dried spores were used in all experiments. The inoculated breads incubated at room temperature of around 21 °C untill visible mould appearance. The appearance of the moulds was imaged by taking photographs. The images were inspected visually, and the TOA was defined as mould appearance in hours after mould inoculation.
Due to limited availability of the high MW chitosan samples, ASLT was performed at small scale in bread rolls. […]

C/C=C/C=C/C(=O)O [sorbic acid]
pKa [1]: about 4.76

CC(O)C(=O)O (stereo not drawn) [lactic acid]
pKa [1]: about 3.85

CCC(=O)[O-].CCC(=O)[O-].[Ca+2] [CalPro, calcium propionate]
increased TOA of P. paneum compared to control bread without preservatives (P. paneum): 17%
effectiveness against A. niger, CalPro compared to chitosan (A. niger; CalPro 0.3% FWB vs chitosan 1% FWB): more effective
TOA of A. niger improved compared to control without preservative (A. niger; CalPro 0.3% FWB, FWF 0.78% FWB, chitosan >0.5 wt.%, alone or in combination): approximately 50%
increased TOA of A. niger compared to control bread without preservatives (A. niger; Example 1, tin breads, ±500 spores, around 21 °C, CalPro 0.3% FWB, chitosan 1% FWB (about 1 wt.%)): 80%
